Source: a melting point compilation (Tetko et al.; mined from patent text by program, amines drawn as free bases though some values may be those of a salt)

SMILES | melting point [°C]
CC(C)CC1(C(N)C(=O)OC(C)(C)C)CCN(CCc2ccccc2)C1=O (centres undefined) | 111 to 113
Cn1c(=O)[nH]c(=O)c2c1ncn2CC(C)(C)O | 268 to 269
O=C(Cc1ccccc1)OCCOC(=O)NC1(C(=O)O)CC1 | 142 to 146
Nc1ccnc(N2CCN(c3nc4cccccc-4n3)CC2)n1 | 205 to 208
O=C(O)CCC(=O)Nc1ccc(N2CCN(c3ccncc3)CC2)cc1 | 263 to 264
Cc1cnc(C2=NC(C)(C(C)C)C(=O)N2)c(C(=O)c2cccs2)c1 (centres undefined) | 168 to 170
CC1=NN=C(c2cc3ccccc3s2)c2cc3oc(=O)[nH]c3cc2C1 | 338 to 340
CC1(c2cccc(F)c2C(=O)NCCCl)CCC1 | 108 to 110
Cc1c(-c2ccccc2)[nH]c2ccc(Br)cc12 | 138 to 140
O=[N+]([O-])c1c(Cl)cccc1NCC(O)CO (centres undefined) | 126
CCN1CC(=O)Nc2cc(Nc3ncc(Cl)c(Nc4ccccc4S(=O)(=O)N(C)C)n3)c(OC)cc2C1 | 175
O=[N+]([O-])c1cccc(Nc2nccc(Sc3cccc(Br)c3)n2)c1 | 208 to 209
O=C1CCCN1c1cnc2cnc(-c3ccc(O)cc3)nc2c1 | > 268
Cc1cc(C)cc(N2CCN(C(=O)NCC(c3ccccc3)c3ccccc3)CC2)c1 | 174 to 175
CC(=O)S[C@H]1C[C@@H](C(=O)Nc2cccc(C(=O)NS(C)(=O)=O)c2)N(C(=O)OCc2ccc([N+](=O)[O-])cc2)C1 | 240 to 242
CCCn1nc(OCc2ccccc2)cc1/C=C/C(=O)OCC | 58 to 59
NNc1nc(N)c2ncn(COCCO)c2n1 | 220 to 222
O=C(Nc1ccc(Cl)cc1)NC1N=C(c2ccccc2)c2ccccc2N(CC(=O)OCc2ccccc2)C1=O (centres undefined) | 220 to 222
CNc1ncnc2ccc(I)cc12 | 245
COc1cnc(NS(=O)(=O)c2cccc(Cl)c2Cl)c(OC)n1 | 138 to 139
N#Cc1ccc(CC2CCN(Cc3ccccc3)CC2)cc1 | 95 to 96
CC1CC2C3CCC4=CC(=O)CCC4=C3C=CC2(C)C1O (centres undefined) | 149 to 151
COc1ccc(CC(=Nc2ccccc2)NC(=S)NCCO)cc1 | 117 to 119
CCOC(=O)c1c(C)cc(-c2ccc(OC)c(OC)c2)cc1C | 91 to 92
CCCCC[N+]([O-])=[N+]([O-])CC | 184 to 185

SMILES | melting point [°C]
Sc1c(Br)cc(Br)cc1Br | 114 to 116
CC(C)c1c(OCCNC(=O)OC(C)(C)C)noc1-c1cccs1 | 94 to 95
O=C(O)CCN1CCN(C2=Nc3ccccc3Cc3ccccc32)CC1 | 140 to 141
CN1C(=O)[C@H](NC(=O)CCc2cccc(C(F)(F)F)c2)N=C(c2ccccc2)c2ccccc21 | 135 to 136
COCC(=O)c1cccc(S(N)(=O)=O)c1 | 121 to 122
Cc1cc(COc2c(Cl)cc(CSc3ccc4ccccc4c3)cc2Cl)oc(=O)c1 | 125
FC(F)(F)c1ccc2c(Nc3ccncc3)noc2c1 | 249 to 250
CCOc1cc(-c2cnc3[nH]cc(C(=O)C(C)(C)C)c3n2)cc(N2CCCC2)c1 | 236 to 237
O=CN1CCN(O)CC1 | 118 to 124
OC1c2ccccc2CCC12CCCCN2 (centres undefined) | 125 to 127
CCCc1c(CSc2nnc(NC(=O)C(=O)OCC)s2)ccc(C(C)=O)c1O | 189
COc1ccc(C(=O)c2cc3ccccc3o2)c(Cl)c1Cl | 148
COc1ccccc1C1=CCN(C[C@@H](CC2CCCCC2)NC(=O)C2(C)CCCCC2)CC1 | 93 to 95
COc1c(C)c(C)cc(C)c1C(O)(c1ccc(F)cc1)C(C)C (centres undefined) | 102 to 103
COCCCS(=O)(=O)NC(=O)CCc1cc(OCC2CC2)nn1Cc1ccc(C(F)(F)F)cc1Cl | 152 to 154
Cc1noc(NC(=O)N2CCN(c3nccc(-c4c(F)cccc4F)n3)CC2)c1C | 189 to 190
COC(=O)C1(C(=O)O)CCc2cc(C3CCCCC3)c(Cl)cc21 (centres undefined) | 139 to 142
COC(=O)C=CC=Cc1cc([N+](=O)[O-])ccc1Cl | 132
CN1C(=O)[C@H](NC(=O)/C=C/c2ccc(I)cc2)N=C(c2ccccc2)c2ccccc21 | 137 to 140
Nc1ccc2ccc(Oc3cccc(F)c3)nc2n1 | 165
CCCn1c(=O)c2c(nn3cc[nH]c23)n(Cc2ccccc2)c1=O | 290 to 292
Cn1c(-c2ccccc2)c(-c2ccc(C(=O)O)cc2)c2ccccc21 | 165 to 166
COc1ccc(COc2nn(Cc3ccccc3)cc2CO)cc1OCc1nc(-c2ccco2)oc1C | 108 to 109
CSc1nccc(Oc2ccc(NC(=O)c3cc(F)cc(N4CCOCC4)c3)c3ccccc23)n1 | 189 to 190
O=C1C(=O)N(Cc2ccccc2F)c2ccc(S(=O)(=O)N3CC[C@H]3COc3ccccc3)cc21 | 147 to 148

SMILES | melting point [°C]
Oc1c(C2=CCCCC2)ccc2ccccc12 | 82 to 83
CCCc1nc2c(N)nc3cc(Br)ccc3c2n1CCCON=C(C)C | 182 to 183
Nc1c(Cl)c(C(=O)O)nc(Cl)c1C(F)(F)F | 173
COC(=O)C(c1ccccc1)C1CCN(c2ccc([N+](=O)[O-])cc2)CC1 (centres undefined) | 124
CNc1c(S(=O)C(F)(F)F)c(C#N)nn1-c1c(Cl)cc(C(F)(F)F)cc1Cl (centres undefined) | 227
CCCCOc1ccc(S(=O)(=O)NCCCCOc2ccc(-n3ccnc3)cc2)cc1 | 103 to 105
CNc1cccc2c1CCn1cc(-c3ccccc3)nc1C2OC1CCN(C)CC1 (centres undefined) | 189
CCN1C(=O)Cc2cccc(OC(=O)CCl)c21 | 105 to 110
Cc1nc(NC(=O)c2cnn3c(C(F)(F)F)cc(-c4ccc(C(F)(F)F)c(Cl)c4)nc23)sc1S(N)(=O)=O | 299
Cc1cnc(-c2nn(C)c(OC(F)F)c2Cl)c(F)c1 | 41 to 42
Cc1cc(C)c2c(n1)N(C(=O)Cl)c1ccccc1N(C)C2=O | 205 to 207
CNc1ccc(C#Cc2cncc(-c3nc(NC)nc4cc(OC)c(OC)cc34)c2)cn1 | 160 to 162
Cc1ccc2c(c1)c(=O)c1c(cnn1C)n2-c1cccc(I)c1 | 123
Nc1nc2c(sc(=O)n2C/C=C\CCl)c(=O)[nH]1 | 200 to 202
Cc1ccc(F)c([Si](C)(C)C)c1C#N | 71 to 73
Nc1ccc2c(c1)CC(N)CC2 (single isomer, unassigned; (+)) | 33 to 34
CCC(Cn1cncn1)(C(N)=O)c1ccc(Cl)cc1Cl (centres undefined) | 164 to 165
COC(=O)c1ccccc1S(=O)(=O)NC(=O)n1nc(C)n(C2CCCC2)c1=O | 146
FC(F)(F)CNc1ccc2c(c1)N1CCN=C1S2 | 212
CSc1nc(Cl)c(-c2c(F)cccc2Cl)c(NC(C)C)n1 | 94 to 98
CCC1NCCc2ccc(NC(=N)c3cccs3)cc21 (centres undefined) | 142 to 144
OCCn1cc(-c2ccc3nnn(Cc4ccc(F)cc4)c3n2)cn1 | 204 to 206
O=C(CSCc1ccc(Cl)cc1Cl)NO | 116
CCc1cc2ccccn2c1C(=O)c1cc(Cl)c(O)c(Cl)c1 | 206
